Laboratory results from PMC8067754, “Active Transport of Hepatotoxic Pyrrolizidine Alkaloids in HepaRG Cells” (International Journal of Molecular Sciences, 2021).
“And” between values parts separate entries of the source, which are not always exact repeats. Identical values can stand only once. Like-named read-outs stand apart in the source and are kept apart here.

Tests used:
[1] = system: HepaRG cells; test: PA and PANO content in cell culture medium of HepaRG cells upon pharmacological transporter inhibition (LC-MS/MS); assay type: in vitro ADME, human
[2] = Cell viability (MTT assay) of HepaRG cells with and without transporter inhibitors; assay type: cell-based, human; settings: human, HepaRG cells
Description: (§1) In the case of TEA, cells were pre-incubated 24 h prior to PA treatment. The inhibitors were applied anew at PA incubation.
(§2) To analyze the cytotoxic effects of PAs on HepaRG cells with non-inhibited and inhibited hepatic transporters, the cells were seeded at a density of 9000 cells per well in the inner 60 wells of a 96-well plate and cultivated as described in Section 4.2. After four weeks of cultivation, FBS concentration in the cell culture medium was reduced to 2% for 48 h prior incubation. Thereby, inhibitory effects of peptide growth factors from the FBS on xenobiotic-metabolizing enzymes were minimized. […] The cells were pre-incubated with pharmacological inhibitors as described in Section 4.3. […] Cell viability was analyzed via the MTT test. 10 µl MTT reagent (5 mg/mL MTT dissolved in phosphate-buffered saline, PBS) was added per well and incubated for 1 h at 37 °C. The supernatant was discarded, and the violet formazan crystals dissolved in 130 µL desorption solution (0.7% sodium dodecyl sulfate in propan-2-ol). After shaking for 20 min (under protection from light), absorbance was measured on a TecanM200Pro spectrometer (Tecan Group Ltd., Männedorf, Switzerland) at a wavelength of 570 nm, along with a reference wavelength of 630 nm.

[3] = system: HepaRG cells; test: as above; assay type: cell-based, human; settings: for viability [%], single replicates: repl. 1-6; for Cell viability (MTT), percent of solvent control, Mean [%]: 24 h, listed as Sc
Description: as §1, §2

[4] = system: HepaRG cells; test: Time-dependent PA depletion and PANO formation in cell culture medium of HepaRG cells at 37 °C and 4 °C (LC-MS/MS)
Description: In order to measure time-dependent depletion of PA and PANO content in cell culture medium, cells were seeded at a density of 0.2 × 10^6 cells per well in a 6-well plate and cultivated as described in Section 4.2. After four weeks of cultivation, cells were adapted to serum-free medium and medium substituted with insulin, transferrin, selenium (ITS) serum extender (Capricorn Scientific, Ebsdorfergrund, Germany) 48 h prior to PA incubation for optimal LC-MS/MS measurements. […] Samples were taken after 2 h, 4 h, 8 h and 24 h.
Briefly, chromatographic separation of PA/PANO analytes was achieved on a 50 × 2.1 mm Kinetex ™ 2.6 μm CoreShell EVO C18 100 Å column protected by a SecurityGuard ™ ULTRA EVO C 18 2.1 mm guard column (both Phenomenex, Aschaffenburg, Germany) at a flow rate of 0.4 mL/min on a Shimadzu high performance liquid chromatography (HPLC) apparatus (LC-20AB, SIL-20AC HT, CTO-20AC, CBM-20A, Duisburg, Germany) coupled to an API4000 triple quadrupole MS (Sciex, Darmstadt, Germany). The following MS parameters were used for measurements in positive electrospray ionisation (ESI+) mode: ionisation voltage 2500 V, nebuliser gas 50 psi, heating gas 50 psi, curtain gas 30 psi, temperature 600 °C, collision gas level 7. The substance specific parameters are summarized in Kaltner et al. 2019 [79].

[5] = target: T1, SLC22A1 (Homo sapiens, UniProt O15245); test: ASP+ (SLC22A1 substrate) uptake measurement in HepaRG cells; assay type: cell-based
T1 construct: For measuring the uptake of ASP^+ in HepaRG cells incubated with PAs; endogenous in cells; host or cells: differentiated HepaRG cells (human hepatoma)
T1 sequence (O15245 1-554): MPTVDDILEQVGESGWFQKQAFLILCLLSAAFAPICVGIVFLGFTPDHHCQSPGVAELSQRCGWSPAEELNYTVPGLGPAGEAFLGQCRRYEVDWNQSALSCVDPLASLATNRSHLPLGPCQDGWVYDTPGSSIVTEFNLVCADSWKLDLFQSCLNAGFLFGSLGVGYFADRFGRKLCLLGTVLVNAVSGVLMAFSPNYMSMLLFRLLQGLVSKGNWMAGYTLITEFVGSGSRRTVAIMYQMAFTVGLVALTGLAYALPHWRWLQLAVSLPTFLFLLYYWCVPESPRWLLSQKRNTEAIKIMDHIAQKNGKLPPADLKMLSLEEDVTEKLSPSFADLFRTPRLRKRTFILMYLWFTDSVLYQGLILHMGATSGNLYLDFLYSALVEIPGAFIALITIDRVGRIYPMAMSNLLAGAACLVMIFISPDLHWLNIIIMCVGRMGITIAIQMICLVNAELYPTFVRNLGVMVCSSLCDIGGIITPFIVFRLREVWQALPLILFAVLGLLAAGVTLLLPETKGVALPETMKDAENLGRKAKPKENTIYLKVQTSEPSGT
Description: ASP^+ is an organic cationic mitochondrial dye that only fluoresces inside cells so that fluorescence measured in the cell culture medium can be neglected. […] In parallel, cells were incubated with Qu (100 µM) and TEA (3 mM) as mentioned in Section 4.3. After 24 h, cells were incubated with 1 µM ASP^+ in Hanks’ balanced salt solution (HBSS, Sigma-Aldrich, Taufkirchen, Germany) at 37 °C. Fluorescence was measured after 20 min at ASP^+-specific wavelength (λex = 475 nm and λem = 605 nm) on a TecanM200Pro spectrometer (Tecan Group Ltd., Männedorf, Switzerland) according to Ahlin et al., (2008).

[6] = mean of 6 replicates, no inhibitor, read-out: viability, MW [%]
[7] = repl. 1-6, read-out: viability [%], single replicates

For `C/C=C1/C[C@@H](C)[C@@](C)(O)C(=O)OCC2=CCN3CC[C@@H](OC1=O)[C@@H]23` [Senecionine, senecionine], the “PA in medium, single replicates (repl.)” value ([1]; no inhibitor, 0h) was 100%, the “PA in medium, single replicates (repl.)” value ([1]; plus MK-571, 0h) was 100% and the viability at 24 h, 1 µM [2, 6] was 100%. The viability at 24 h, 1 µM [2, 7] was 95.1%, the viability at 24 h, 10 µM [2, 6] was 84.6% and the viability at 24 h, 10 µM [2, 7] was 80%. The viability at 24 h, 50 µM ([2]; 50 µM, mean of 6 replicates, no inhibitor, read-out: viability, MW [%]) was 65%, the viability at 24 h, 100 µM ([2]; 100 µM, mean of 6 replicates, no inhibitor, read-out: viability, MW [%]) was 59.7% and the viability at 24 h, 250 µM ([2]; 250 µM, mean of 6 replicates, no inhibitor, read-out: viability, MW [%]) was 48.7%. It also gave a viability at 24 h, 250 µM ([2]; HepaRG, 250 µM PA only, 24 h, read-out: Cell viability (MTT), percent of solvent control, Mean [%]) of 46%, a viability at 24 h, 250 µM ([2]; with 5 µM Ko143, HepaRG, 250 µM PA + Ko143 (5 µM, 1 h pre-incubation), 24 h, read-out: Cell viability (MTT), percent of solvent control, Mean [%]) of 46.5% and a viability at 24 h, 250 µM ([2]; with 50 µM MK-571, HepaRG, 250 µM PA + MK571 (50 µM, 1 h pre-incubation), 24 h, read-out: Cell viability (MTT), percent of solvent control, Mean [%]) of 59.1%. It also gave a viability at 24 h, 250 µM ([2]; with CsA 10 µM, HepaRG, 250 µM PA + CsA (10 µM, 1 h pre-incubation), 24 h, read-out: Cell viability (MTT), percent of solvent control, Mean [%]) of 63%, a viability at 24 h, 250 µM ([2]; with Qu 100 µM, HepaRG, 250 µM PA + Qu (100 µM, 1 h pre-incubation), 24 h, read-out: Cell viability (MTT), percent of solvent control, Mean [%]) of 90% and a viability at 24 h, 250 µM ([2]; with TEA 3 mM, HepaRG, 250 µM PA + TEA (3 mM, 24 h pre-incubation), 24 h, read-out: Cell viability (MTT), percent of solvent control, Mean [%]) of 69%. For the same compound, the “viability [%], single replicates” value ([3]; 1 µM) was 104.702% and 96.5101% and 108.622% and 97.0096% and 97.8347%, the “viability [%], single replicates” value ([3]; 10 µM) was 86.1735% and 91.8709% and 86.9963% and 83.2717% and 79.1258% and the “viability [%], single replicates” value ([3]; 50 µM) was 59.5192% and 77.2207% and 70.6602% and 63.183% and 55.3454%. For the same compound, the “viability [%], single replicates” value ([3]; 100 µM) was 53.5295% and 51.7769% and 80.0886% and 68.6733% and 54.6212% and 49.5185%, the “viability [%], single replicates” value ([3]; 250 µM) was 44.9713% and 47.0747% and 66.5507% and 52.719% and 45.8871% and 35.0536% and the “cytotoxicity of the applied concentration” value ([3]; HepaRG, 2.5 µM, Figure S2) was “not cytotoxic”. The “Cell viability (MTT), percent of solvent control, Mean [%]” value (from here on “Cell viability (MTT), percent … [%]”) ([3]; HepaRG, 250 µM PA + CsA (10 µM, 1 h pre-incubation)) was 63.5771%, the “Cell viability (MTT), percent … [%]” value ([3]; HepaRG, 250 µM PA + Qu (100 µM, 1 h pre-incubation)) was 91.9218% and the “Cell viability (MTT), percent … [%]” value ([3]; HepaRG, 250 µM PA + TEA (3 mM, 24 h pre-incubation)) was 69.5844%. The “Cell viability (MTT), percent … [%]” value ([3]; HepaRG, 250 µM PA only) was 46.8929%, the “reduction of PA content in the supernatant” value [4] was “highest decline” and the “uptake and toxicity (grading)” value [4] was “strong”. The “PANO in medium, Mean [%]” value ([4]; human) was 0%, the “PANO in medium, single replicates (repl.)” value ([4]; human) was 0% and the “fluorescence [%], MW [%]” value ([5]; 1 µM, solv ctrl = 100) was 90.9095%. For the same compound, the “fluorescence [%], MW [%]” value ([5]; 10 µM, solv ctrl = 100) was 39.1097%, the “fluorescence [%], MW [%]” value ([5]; 50 µM, solv ctrl = 100) was 27.2215% and the “fluorescence [%], MW [%]” value ([5]; 100 µM, solv ctrl = 100) was 21.3927%. For the same compound, the “fluorescence [%], MW [%]” value ([5]; 250 µM, solv ctrl = 100) was 20.0876%, the “interaction with SLC22A1” value ([5]; HepaRG) was “both inhibitors and substrates” and the “minimum concentration inhibiting uptake of the SLC22A1-specific substrate ASP+” value ([5]; HepaRG, 24 h) was 10 µM. The remaining activity at 1 µM ([5]; HepaRG, 24 h, 1 µM, solv ctrl = 100, read-out: fluorescence [%], single replicates (repl.)) was 82%.
